Each block holds one compound with its values, some of them ahead of it.
How the values were obtained:
[1] = test system: OPM2; test: CellTiter-Blue cell-based survival/proliferation assay, OPM2; conditions: Homo sapiens, OPM-2, Myeloma cell line OPM2, 48 h, read-out: Anti-tumoral activity (measured IC50) OPM2
How it was run: (§1)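 Tenfold compound dilutions (0–10 μM) were added to 1·10^4 cells/well. Plates incubated 48 h at 37 °C. CellTiter-Blue reduction (4 h, 37 °C) was read as fluorescence at 590 nm, background-corrected with a cell-free blank.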

[2] = test system: PANC1; test: CellTiter-Blue cell-based survival/proliferation assay, PANC1; conditions: Homo sapiens, PANC-1; PANC_1 pancreas tumor cell line, 48 h
How it was run: as §1

[3] = test system: BXPC3; test: CellTiter-Blue cell-based survival/proliferation assay, BXPC3; conditions: Homo sapiens, BXPC-3; BXPC3 pancreas tumor cell line, 48 h
How it was run: as §1

[4] = test system: panel of about 34 human tumor cell lines; test: Cell-based proliferation screening on panel of tumor cell lines; conditions: solid tumor cell line, cell line unknown, 48 h, read-out: IC50, solid tumor cell line of column 6 (last section of Table 3)
How it was run: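 CellTiter-Blue survival assay with 1·10^4 cells/well, each line treated 48 h at 37° C with 1/10 serial dilutions from 0 to 10 μM. Resorufin formed during a 4 h reagent incubation is read by fluorescence at 590 nm. A cell-free blank serves as background.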

[5] = test system: PLCPRF5; test: CellTiter-Blue cell-based survival/proliferation assay, PLCPRF5; conditions: Homo sapiens, PLC-PRF-5; PLC_PRF5 liver tumor cell line, 48 h
How it was run: as §1

[6] = test system: PC3; test: CellTiter-Blue cell-based survival/proliferation assay, PC3; conditions: Homo sapiens, PC-3; PC3 prostate tumor cell line, 48 h
How it was run: as §1

[7] = test system: HL60; test: CellTiter-Blue cell-based survival/proliferation assay, HL60; conditions: Homo sapiens, HL-60, Leukemia cell line HL60, 48 h, read-out: Anti-tumoral activity (measured IC50) HL60
How it was run: as §1

[8] = test system: HEP2; test: CellTiter-Blue cell-based survival/proliferation assay, HEP2; conditions: Homo sapiens, HEp-2; HEP2 head & neck tumor cell line, 48 h
How it was run: as §1

[9] = test system: HCT116; test: CellTiter-Blue cell-based survival/proliferation assay, HCT116; conditions: Homo sapiens, HCT-116; HCT116 colorectal tumor cell line, 48 h
How it was run: as §1

[10] = test system: KARPAS299; test: CellTiter-Blue cell-based survival/proliferation assay, KARPAS299; conditions: Homo sapiens, KARPAS-299, Lymphoma cell line KARPAS299, 48 h, read-out: Anti-tumoral activity (measured IC50) KARPAS299
How it was run: as §1

[11] = test system: MDAMB231; test: CellTiter-Blue cell-based survival/proliferation assay, MDAMB231; conditions: Homo sapiens, MDA-MB-231; MDAMB231 breast tumor cell line, 48 h
How it was run: as §1

[12] = test system: CLS354; test: CellTiter-Blue cell-based survival/proliferation assay, CLS354; conditions: Homo sapiens, CLS-354; CLS354_4 head & neck tumor cell line, 48 h
How it was run: as §1

[13] = test system: HEPG2; test: CellTiter-Blue cell-based survival/proliferation assay, HEPG2; conditions: Homo sapiens; HEPG2 liver tumor cell line, 48 h
How it was run: as §1

[14] = test system: A498; test: CellTiter-Blue cell-based survival/proliferation assay, A498; conditions: Homo sapiens; A498 kidney tumor cell line, 48 h
How it was run: as §1

[15] = test system: SW579; test: CellTiter-Blue cell-based survival/proliferation assay, SW579; conditions: Homo sapiens; SW579 head & neck tumor cell line, 48 h
How it was run: as §1

[16] = test system: ACHN; test: CellTiter-Blue cell-based survival/proliferation assay, ACHN; conditions: Homo sapiens; ACHN kidney tumor cell line, 48 h
How it was run: as §1

[17] = test system: REC1; test: CellTiter-Blue cell-based survival/proliferation assay, REC1; conditions: Homo sapiens, Lymphoma cell line REC1, 48 h, read-out: Anti-tumoral activity (measured IC50) REC1
How it was run: as §1

[18] = test system: AGS; test: CellTiter-Blue cell-based survival/proliferation assay, AGS; conditions: Homo sapiens; AGS stomach tumor cell line, 48 h
How it was run: as §1

[19] = test system: A549; test: CellTiter-Blue cell-based survival/proliferation assay, A549; conditions: Homo sapiens; A549 lung tumor cell line, 48 h
How it was run: as §1

[20] = test system: HGC27; test: CellTiter-Blue cell-based survival/proliferation assay, HGC27; conditions: Homo sapiens, HGC-27; HGC27 stomach tumor cell line, 48 h
How it was run: as §1

[21] = test system: DLD1; test: CellTiter-Blue cell-based survival/proliferation assay, DLD1; conditions: Homo sapiens, DLD-1; DLD_1 colorectal tumor cell line, 48 h
How it was run: as §1

[22] = test system: MESSA; test: CellTiter-Blue cell-based survival/proliferation assay, MESSA; conditions: Homo sapiens, MES-SA; MESSA ovary tumor cell line, 48 h
How it was run: as §1

[23] = test system: DU145; test: CellTiter-Blue cell-based survival/proliferation assay, DU145; conditions: Homo sapiens, DU-145; DU145 prostate tumor cell line, 48 h
How it was run: as §1

[24] = test system: HUT78; test: CellTiter-Blue cell-based survival/proliferation assay, HUT78; conditions: Homo sapiens, Lymphoma cell line HUT78, 48 h, read-out: Anti-tumoral activity (measured IC50) HUT78
How it was run: as §1

[25] = test system: TOV112D; test: CellTiter-Blue cell-based survival/proliferation assay, TOV112D; conditions: Homo sapiens; TOV112D ovary tumor cell line, 48 h
How it was run: as §1

[26] = test system: H1299; test: CellTiter-Blue cell-based survival/proliferation assay, H1299; conditions: Homo sapiens, NCI-H1299; H1299 lung tumor cell line, 48 h
How it was run: as §1

[27] = test system: CALU6; test: CellTiter-Blue cell-based survival/proliferation assay, CALU6; conditions: Homo sapiens, Calu-6; CALU6 lung tumor cell line, 48 h
How it was run: as §1

[28] = test system: BT20; test: CellTiter-Blue cell-based survival/proliferation assay, BT20; conditions: Homo sapiens, BT-20; BT20 breast tumor cell line, 48 h
How it was run: as §1

IC50 [4]: 500 to 1000 nM
SMILES: CCOCc1ccc(C)c(Nc2ncc(-c3ccc(-c4ccccn4)cc3)o2)c1 [Example 048, (5-Ethoxymethyl-2-methyl-phenyl)-[5-(4-pyridin-2-yl-phenyl)-oxazol-2-yl]-amine]
IC50 [1]: 500 to 1000 nM | IC50 [2]: > 1000 nM | IC50 [3]: > 1000 nM | IC50 [5]: > 1000 nM | IC50 [6]: > 1000 nM | IC50 [7]: 100 to 500 nM | IC50 [8]: > 1000 nM | IC50 [9]: > 1000 nM | IC50 [10]: 500 to 1000 nM | IC50 [11]: > 1000 nM | IC50 [12]: 500 to 1000 nM | IC50 [13]: > 1000 nM | IC50 [14]: > 1000 nM | IC50 [15]: > 1000 nM | IC50 [16]: > 1000 nM | IC50 [17]: 500 to 1000 nM | IC50 [18]: > 1000 nM | IC50 [19]: > 1000 nM | IC50 [20]: > 1000 nM | IC50 [21]: > 1000 nM | IC50 [22]: > 1000 nM | IC50 [23]: > 1000 nM | IC50 [24]: 500 to 1000 nM | IC50 [25]: > 1000 nM | IC50 [26]: > 1000 nM | IC50 [27]: > 1000 nM | IC50 [28]: > 1000 nM

IC50 [4]: > 1000 nM
SMILES: CCOCc1ccc(C)c(Nc2ncc(-c3ccc(-n4ccccc4=O)cc3)o2)c1 [Example 049, 1-{4-[2-(5-Ethoxymethyl-(2-methyl-phenylamino))-oxazol-5-yl]-phenyl}-1H-pyridin-2-one]
IC50 [1]: > 1000 nM | IC50 [2]: > 1000 nM | IC50 [3]: > 1000 nM | IC50 [5]: > 1000 nM | IC50 [6]: > 1000 nM | IC50 [7]: > 1000 nM | IC50 [8]: > 1000 nM | IC50 [9]: > 1000 nM | IC50 [10]: > 1000 nM | IC50 [11]: > 1000 nM | IC50 [12]: > 1000 nM | IC50 [13]: > 1000 nM | IC50 [14]: > 1000 nM | IC50 [15]: > 1000 nM | IC50 [16]: > 1000 nM | IC50 [17]: > 1000 nM | IC50 [18]: > 1000 nM | IC50 [19]: > 1000 nM | IC50 [20]: > 1000 nM | IC50 [21]: > 1000 nM | IC50 [22]: > 1000 nM | IC50 [23]: > 1000 nM | IC50 [24]: > 1000 nM | IC50 [25]: > 1000 nM | IC50 [26]: > 1000 nM | IC50 [27]: > 1000 nM | IC50 [28]: > 1000 nM

IC50 [4]: 500 to 1000 nM
SMILES: CCOCc1ccc(C)c(Nc2ncc(-c3ccc(-c4ccc[nH]c4=O)cc3)o2)c1 [Example 050, 3-{4-[2-(5-Ethoxymethyl-(2-methyl-phenylamino))-oxazol-5-yl]-phenyl}-1H-pyridin-2-one]
IC50 [1]: 500 to 1000 nM | IC50 [2]: > 1000 nM | IC50 [3]: > 1000 nM | IC50 [5]: > 1000 nM | IC50 [6]: > 1000 nM | IC50 [7]: 500 to 1000 nM | IC50 [8]: > 1000 nM | IC50 [9]: > 1000 nM | IC50 [10]: 100 to 500 nM | IC50 [11]: > 1000 nM | IC50 [12]: > 1000 nM | IC50 [13]: > 1000 nM | IC50 [14]: > 1000 nM | IC50 [15]: > 1000 nM | IC50 [16]: > 1000 nM | IC50 [17]: 500 to 1000 nM | IC50 [18]: > 1000 nM | IC50 [19]: > 1000 nM | IC50 [20]: > 1000 nM | IC50 [21]: > 1000 nM | IC50 [22]: > 1000 nM | IC50 [23]: > 1000 nM | IC50 [24]: > 1000 nM | IC50 [25]: > 1000 nM | IC50 [26]: > 1000 nM | IC50 [27]: > 1000 nM | IC50 [28]: > 1000 nM
